In EP4603105A1, “PHARMACEUTICAL COMPOSITION CONTAINING CYCLIC COMPOUND HAVING SELECTIVE KRAS INHIBITORY EFFECT AGAINST HRAS AND NRAS” (CHUGAI SEIYAKU KABUSHIKI KAISHA, priority 2022, dated 2024):
*1 amine or outer side, *2 acyl side, *3 side chain or, on linkers, in order; H or OH if unused. Where a SMILES comes first, the peptide text is derived from it. Bridges are numbered along the chain shown (N, C = ends). [ ]: non-standard residue; d: D form. The star is where a group is joined. hPhe(3-Cl-4-CF3) = N[C@@H](CCc1ccc(C(F)(F)F)c(Cl)c1)C(=O)O; NEtPhe(4-CF3) = CCN[C@@H](Cc1ccc(C(F)(F)F)cc1)C(=O)O; NEtPhe(4-Me) = CCN[C@@H](Cc1ccc(C)cc1)C(=O)O; NMePhe(4-Me) = CN[C@@H](Cc1ccc(C)cc1)C(=O)O; X30 = CCN([C@H](C(=O)[*:2])C1CCCC1)[*:1]; NMeGly(cPent) = CN[C@H](C(=O)O)C1CCCC1; NMeD = CN[C@@H](CC(=O)O)C(=O)O; NMeL = CN[C@@H](CC(C)C)C(=O)O; Morpholide = C1CN(*)CCO1; Ac5c = NC1(C(=O)O)CCCC1; NBuGly = CCCCNCC(=O)O; NPrGly = CCCNCC(=O)O; NEtG = CCNCC(=O)O; Sar = CNCC(=O)O

How the values were obtained:
[1] = molecular target: GDP-bound NRAS wild-type protein (Homo sapiens, UniProt P01111); assay: Binding to NRAS by surface plasmon resonance (SPR), KD and KD ratio to KRAS; settings: ratio of KD for GDP-bound NRAS wild-type protein to KD for KRAS
GDP-bound NRAS wild-type protein, sequence (P01111 whole entry): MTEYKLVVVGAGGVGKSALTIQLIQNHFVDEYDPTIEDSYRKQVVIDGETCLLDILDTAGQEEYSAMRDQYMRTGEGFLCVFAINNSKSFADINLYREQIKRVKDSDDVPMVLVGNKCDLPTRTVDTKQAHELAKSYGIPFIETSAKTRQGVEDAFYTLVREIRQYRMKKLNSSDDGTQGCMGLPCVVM
Protocol: (§1) Surface plasmon resonance was used to analyze the binding affinity of compounds for KRAS, NRAS, and HRAS. The apparatus used was Biacore 8K, 8K+, or T200 (GE Healthcare), and the running buffer used was HBS (10 mM HEPES-NaOH, 150 mM NaCl, pH 7.4) containing 1 mM DTT, 10 mM MgCl2, 0.01% Tween 20, 10 µM GDP, and 4% DMSO.
(§2) Biotinylated Avi-tag fusion KRAS, NRAS, and HRAS proteins were expressed in E. coli BL21 (DE3) strains, and after cells were homogenized, they were purified using Streptavidin Mutein Matrix and Superdex 75. After purification, GDP-loaded KRAS, NRAS, and HRAS proteins were immobilized on the surface of Sensor Chip CAP (Cytiva) coated with Biotin CAPture Reagent in an immobilization amount of about 100 to 300 RU. Binding of each compound was evaluated by the Single Cycle Kinetics method, and a running buffer or a compound solution was added to the RAS protein non-immobilized surface and the immobilized surface to obtain a binding response. The flow rate was set to 100 µL/min, and in the compound-adding cycle, compound solutions having different concentrations were intermittently added for 75 seconds each, starting from a low concentration. […] In the blank cycle, a running buffer was intermittently added and not the compound solution. The Biotin CAPture Reagent and RAS proteins were immobilized for each cycle, and at the end of each cycle, the sensor chip was regenerated by the regeneration solution appended to the Biotin CAPture Kit (Cytiva). Measurement was carried out at 30°C.
(§3) The resulting sensorgram was subjected to curve fitting based on a 1:1 binding model on Biacore Insight Evaluation Software or T200 Evaluation Software, and thereby the dissociation constant KD of each compound with respect to KRAS, NRAS, and HRAS was determined. […] Blank indicates a compound from which the KD value with respect to NRAS or HRAS was not obtained.

HRAS wild-type protein = HRAS wild-type protein (Homo sapiens, UniProt P01112); assay: Binding to HRAS by surface plasmon resonance (SPR), KD and KD ratio to KRAS; settings: ratio of KD for HRAS wild-type protein to KD for KRAS
HRAS wild-type protein, sequence (P01112 whole entry): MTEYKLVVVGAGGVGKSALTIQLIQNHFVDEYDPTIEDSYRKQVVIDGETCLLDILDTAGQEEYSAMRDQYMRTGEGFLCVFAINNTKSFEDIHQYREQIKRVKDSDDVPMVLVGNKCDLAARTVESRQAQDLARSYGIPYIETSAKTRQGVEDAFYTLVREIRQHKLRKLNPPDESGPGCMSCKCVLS
Protocol: as §1, §2, §3

[2] = tested on: human lung cancer strain NCI-H441; format: cell-based
In short: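 Signal came from […] measured per well once the reagent was added. Beforehand, cells were cultured at 37°C and 5% carbon dioxide on a compound series serially diluted in dimethyl sulfoxide.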

Row | Compound | NRAS /KRAS [1] | HRAS /KRAS (HRAS wild-type protein) | IC50 [2]
1 | CCCN1CC(=O)N(C)[C@@H](Cc2ccc(C)cc2)C(=O)N(C)CC(=O)N[C@@H](CCc2ccc(C(F)(F)F)c(Cl)c2)C(=O)N2CCC[C@H]2C(=O)NC2(CCCC2)C(=O)N(C)[C@@H](C2CCCC2)C(=O)N(C)[C@H](C(=O)N2CCOCC2)CC(=O)N(C)[C@@H](CC(C)C)C(=O)N[C@@H]([C@@H](C)CC)C(=O)N(C)CC1=O [PP0020] ([NMeL]I[Sar][NPrGly][NMePhe(4-Me)][Sar][hPhe(3-Cl-4-CF3)]P[Ac5c][NMeGly(cPent)][NMeD]-Morpholide; lactam N-11) | C (A compound having a KD ratio of 0.1 or more and less than 3 is denoted as C) | C (A compound having a KD ratio of 0.1 or more and less than 3 is denoted as C) | 9.9 nM
2 | CCCCN1CC(=O)N(C)[C@@H](Cc2ccc(C)cc2)C(=O)N(C)CC(=O)N[C@@H](CCc2ccc(C(F)(F)F)c(Cl)c2)C(=O)N2CCC[C@H]2C(=O)NC2(CCCC2)C(=O)N(C)[C@@H](C2CCCC2)C(=O)N(C)[C@H](C(=O)N2CCOCC2)CC(=O)N(C)[C@@H](CC(C)C)C(=O)N[C@@H]([C@@H](C)CC)C(=O)N(C)CC1=O [PP0021] ([NMeL]I[Sar][NBuGly][NMePhe(4-Me)][Sar][hPhe(3-Cl-4-CF3)]P[Ac5c][NMeGly(cPent)][NMeD]-Morpholide; lactam N-11) | C (A compound having a KD ratio of 0.1 or more and less than 3 is denoted as C) | C (A compound having a KD ratio of 0.1 or more and less than 3 is denoted as C) | 9.8 nM
3 | CC[C@H](C)[C@@H]1NC(=O)[C@H](CC(C)C)N(C)C(=O)C[C@@H](C(=O)N2CCOCC2)N(C)C(=O)[C@H](C2CCCC2)N(C)C(=O)C2(CCCC2)NC(=O)[C@@H]2CCCN2C(=O)[C@H](CCc2ccc(C(F)(F)F)c(Cl)c2)NC(=O)CN(C)C(=O)[C@H](Cc2ccc(C)cc2)N(CC)C(=O)CN(C)C(=O)CN(C)C1=O [PP0022] ([NMeL]I[Sar][Sar][NEtPhe(4-Me)][Sar][hPhe(3-Cl-4-CF3)]P[Ac5c][NMeGly(cPent)][NMeD]-Morpholide; lactam N-11) | B (a compound having 3 or more and less than 10 is denoted as B) | C (A compound having a KD ratio of 0.1 or more and less than 3 is denoted as C) | 14.4 nM
4 | CC[C@H](C)[C@@H]1NC(=O)[C@H](CC(C)C)N(C)C(=O)C[C@@H](C(=O)N2CCOCC2)N(C)C(=O)[C@H](C2CCCC2)N(C)C(=O)C2(CCCC2)NC(=O)[C@@H]2CCCN2C(=O)[C@H](CCc2ccc(C(F)(F)F)c(Cl)c2)NC(=O)CN(C)C(=O)[C@H](Cc2ccc(C(F)(F)F)cc2)N(CC)C(=O)CN(C)C(=O)CN(C)C1=O [PP0023] ([NMeL]I[Sar][Sar][NEtPhe(4-CF3)][Sar][hPhe(3-Cl-4-CF3)]P[Ac5c][NMeGly(cPent)][NMeD]-Morpholide; lactam N-11) | B (a compound having 3 or more and less than 10 is denoted as B) | C (A compound having a KD ratio of 0.1 or more and less than 3 is denoted as C) | 4.5 nM
5 | CC[C@H](C)[C@@H]1NC(=O)[C@H](CC(C)C)N(C)C(=O)C[C@@H](C(=O)N2CCOCC2)N(C)C(=O)[C@H](C2CCCC2)N(C)C(=O)C2(CCCC2)NC(=O)[C@@H]2CCCN2C(=O)[C@H](CCc2ccc(C(F)(F)F)c(Cl)c2)NC(=O)CN(C)C(=O)[C@H](C2CCCC2)N(CC)C(=O)CN(C)C(=O)CN(C)C1=O [PP0024] ([NMeL]I[Sar][Sar][X30][Sar][hPhe(3-Cl-4-CF3)]P[Ac5c][NMeGly(cPent)][NMeD]-Morpholide; lactam N-11) | B (a compound having 3 or more and less than 10 is denoted as B) | C (A compound having a KD ratio of 0.1 or more and less than 3 is denoted as C) | 102 nM
6 | CC[C@H](C)[C@@H]1NC(=O)[C@H](CC(C)C)N(C)C(=O)C[C@@H](C(=O)N2CCOCC2)N(C)C(=O)[C@H](C2CCCC2)N(C)C(=O)C2(CCCC2)NC(=O)[C@@H]2CCCN2C(=O)[C@H](CCc2ccc(C(F)(F)F)c(Cl)c2)NC(=O)CN(CC)C(=O)[C@H](Cc2ccc(C)cc2)N(C)C(=O)CN(C)C(=O)CN(C)C1=O [PP0025] ([NMeL]I[Sar][Sar][NMePhe(4-Me)][NEtG][hPhe(3-Cl-4-CF3)]P[Ac5c][NMeGly(cPent)][NMeD]-Morpholide; lactam N-11) | C (A compound having a KD ratio of 0.1 or more and less than 3 is denoted as C) | C (A compound having a KD ratio of 0.1 or more and less than 3 is denoted as C) | 27.5 nM
7 | CC[C@H](C)[C@@H]1NC(=O)[C@H](CC(C)C)N(C)C(=O)C[C@@H](C(=O)N2CCOCC2)N(C)C(=O)[C@H](C2CCCC2)N(C)C(=O)C2(CCCC2)NC(=O)[C@@H]2CCCN2C(=O)[C@H](CCc2ccc(C(F)(F)F)c(Cl)c2)NC(=O)CN(C)C(=O)[C@H](Cc2ccc(C)cc2)N(CC)C(=O)CN(CC)C(=O)CN(C)C1=O [PP0027] ([NMeL]I[Sar][NEtG][NEtPhe(4-Me)][Sar][hPhe(3-Cl-4-CF3)]P[Ac5c][NMeGly(cPent)][NMeD]-Morpholide; lactam N-11) | C (A compound having a KD ratio of 0.1 or more and less than 3 is denoted as C) | C (A compound having a KD ratio of 0.1 or more and less than 3 is denoted as C) | 17.1 nM
8 | CC[C@H](C)[C@@H]1NC(=O)[C@H](CC(C)C)N(C)C(=O)C[C@@H](C(=O)N2CCOCC2)N(C)C(=O)[C@H](C2CCCC2)N(C)C(=O)C2(CCCC2)NC(=O)[C@@H]2CCCN2C(=O)[C@H](CCc2ccc(C(F)(F)F)c(Cl)c2)NC(=O)CN(CC)C(=O)[C@H](Cc2ccc(C)cc2)N(CC)C(=O)CN(C)C(=O)CN(C)C1=O [PP0028] ([NMeL]I[Sar][Sar][NEtPhe(4-Me)][NEtG][hPhe(3-Cl-4-CF3)]P[Ac5c][NMeGly(cPent)][NMeD]-Morpholide; lactam N-11) | C (A compound having a KD ratio of 0.1 or more and less than 3 is denoted as C) | C (A compound having a KD ratio of 0.1 or more and less than 3 is denoted as C) | 54.5 nM
9 | CC[C@H](C)[C@@H]1NC(=O)[C@H](CC(C)C)N(C)C(=O)C[C@@H](C(=O)N2CCOCC2)N(C)C(=O)[C@H](C2CCCC2)N(C)C(=O)C2(CCCC2)NC(=O)[C@@H]2CCCN2C(=O)[C@H](CCc2ccc(C(F)(F)F)c(Cl)c2)NC(=O)CN(CC)C(=O)[C@H](Cc2ccc(C)cc2)N(C)C(=O)CN(CC)C(=O)CN(C)C1=O [PP0029] ([NMeL]I[Sar][NEtG][NMePhe(4-Me)][NEtG][hPhe(3-Cl-4-CF3)]P[Ac5c][NMeGly(cPent)][NMeD]-Morpholide; lactam N-11) | C (A compound having a KD ratio of 0.1 or more and less than 3 is denoted as C) | C (A compound having a KD ratio of 0.1 or more and less than 3 is denoted as C) | 26.4 nM
10 | CC[C@H](C)[C@@H]1NC(=O)[C@H](CC(C)C)N(C)C(=O)C[C@@H](C(=O)N2CCOCC2)N(C)C(=O)[C@H](C2CCCC2)N(C)C(=O)C2(CCCC2)NC(=O)[C@@H]2CCCN2C(=O)[C@H](CCc2ccc(C(F)(F)F)c(Cl)c2)NC(=O)CN(CC)C(=O)[C@H](Cc2ccc(C)cc2)N(CC)C(=O)CN(CC)C(=O)CN(C)C1=O [PP0030] ([NMeL]I[Sar][NEtG][NEtPhe(4-Me)][NEtG][hPhe(3-Cl-4-CF3)]P[Ac5c][NMeGly(cPent)][NMeD]-Morpholide; lactam N-11) | C (A compound having a KD ratio of 0.1 or more and less than 3 is denoted as C) | C (A compound having a KD ratio of 0.1 or more and less than 3 is denoted as C) | 86.7 nM
